The numbers were not newly measured in PMC11187573, “Identification of SARS-CoV-2 Mpro inhibitors through deep reinforcement learning for de novo drug design and computational chemistry approaches” (RSC Medicinal Chemistry, 2024), which cites them from elsewhere.

The data set relates to Mpro. As to conditions: ML dataset, Origin COVID_Moonshot; ref COVID Moonshot; cited from earlier work.

What is called IC50 is the point on the concentration scale where inhibition reaches its midpoint. Regarding `CCOC(=O)c1ncoc1CNC(=O)C(c1cccnc1)N(C(=O)c1cocn1)c1ccc(C(C)(C)C)cc1` (centres unmarked) [ALP-POS-88a7a97e-49], the IC50 was 5.88 µM. Regarding `CC(C)(C)c1ccc(N(C(=O)c2c[nH]c(=O)s2)C(C(=O)NCCc2cccc(F)c2)c2cccnc2)cc1` (centres unmarked) [ALP-POS-305f6ec3-2], the IC50 is 29.1 µM. As for `CC(C)(C)c1ccc(N(C(=O)c2c[nH]nn2)C(C(=O)NCCc2cccc(F)c2)c2cccnc2)cc1` (centres unmarked) [ALP-POS-305f6ec3-14], the half-maximal inhibitory concentration (IC50) was 1.17 µM.

On to `CC(C)(C)c1ccc(N(C(=O)c2c[nH]c(=O)cn2)C(C(=O)NCCc2cccc(F)c2)c2cccnc2)cc1` (centres unmarked) [ALP-POS-305f6ec3-33], for which the IC50 was 77.1 µM.

Take `CC(C)(C)c1ccc(N(C(=O)c2cc(CO)[nH]n2)C(C(=O)NCCc2cccc(F)c2)c2cccnc2)cc1` (centres unmarked) [ALP-POS-305f6ec3-38]: the 50% inhibitory concentration (IC50) is 18.8 µM.

As for `CC(C)(C)c1ccc(N(C(=O)c2cncs2)C(C(=O)NCCc2cccc(F)c2)c2cccnc2)cc1` (centres unmarked) [ALP-POS-305f6ec3-41], the 50% inhibitory concentration (IC50) was 24.2 µM. `Cn1ncc(C(=O)N(c2ccc(C(C)(C)C)cc2)C(C(=O)NCCc2cccc(F)c2)c2cccnc2)n1` (centres unmarked) [ALP-POS-305f6ec3-46]: the IC50 was 17.6 µM. Regarding `CC(C)(C)c1ccc(N(C(=O)c2cnco2)C(C(=O)NCCc2cccc(F)c2)c2cccnc2)cc1` (centres unmarked) [ALP-POS-305f6ec3-49], the 50% inhibitory concentration (IC50) is 4.78 µM.

For the compound `CC(C)(C)c1ccc(N(C(=O)c2c[nH]c(=O)[nH]2)C(C(=O)NCCc2cccc(F)c2)c2cccnc2)cc1` (centres unmarked) [ALP-POS-305f6ec3-52], the concentration for half-maximal inhibition (IC50) is 15.9 µM. Turning to `Cn1cnc(C(=O)N(c2ccc(C(C)(C)C)cc2)C(C(=O)NCCc2cccc(F)c2)c2cccnc2)n1` (centres unmarked) [ALP-POS-305f6ec3-55], the 50% inhibitory concentration (IC50) was 74.2 µM. On to `CC(C)(C)c1ccc(N(C(=O)c2cc(=O)[nH][nH]2)C(C(=O)NCCc2cccc(F)c2)c2cccnc2)cc1` (centres unmarked) [ALP-POS-305f6ec3-59], for which the IC50 was 39.7 µM. As for `O=C(Nc1cncc2ccccc12)C1CCOc2c1ccc(Cl)c2Cl` (centres unmarked) [ALP-POS-869ac754-2], the IC50 was 3.31 µM. Turning to `O=C(Nn1nnc2ccccc21)C(Cc1cccc(Cl)c1)c1ccc(N2CCCCC2=O)cc1` (centres unmarked) [ALP-POS-a3de0cb1-13], the half-inhibitory concentration (IC50) is 66.4 µM. Take `O=C1CCCCN1c1ccc(N(Cc2ccccc2)C(=O)Cc2n[nH]c3ccccc23)cc1` [ALP-POS-a3de0cb1-16]: the half-maximal inhibitory concentration (IC50) was 39.4 µM.

Turning to `O=C(NCCc1cccc(F)c1)C(c1cccnc1)N(C(=O)c1ccco1)c1ccc(C2CCCC2)cc1` (centres unmarked) [ALP-POS-b0bc6a46-5], the IC50 is 0.282 µM. On to `O=C(NCCc1cccc(F)c1)C(c1cccnc1)N(Cc1ccccc1C1CCC1)C(=O)c1ccco1` (centres unmarked) [ALP-POS-b0bc6a46-10], for which the IC50 is 1.93 µM. Regarding `CC(C)(C)c1cnc(N(C(=O)c2ccco2)C(C(=O)NCCc2cccc(F)c2)c2cccnc2)s1` (centres unmarked) [ALP-POS-b0bc6a46-12], the 50% inhibitory concentration (IC50) was 3.94 µM. Take `CSc1ccc(CN(C(=O)c2ccco2)C(C(=O)NCCc2cccc(F)c2)c2cccnc2)cc1C#N` (centres unmarked) [ALP-POS-b0bc6a46-20]: the IC50 was 54.9 µM. Regarding `COc1ccc(N(C(=O)c2ccco2)C(C(=O)NCCc2cccc(F)c2)c2cccnc2)cc1` (centres unmarked) [ALP-POS-b0bc6a46-22], the IC50 is 30.5 µM. With `N#Cc1ccc(N(C(=O)c2ccco2)C(C(=O)NCCc2cccc(F)c2)c2cccnc2)cc1` (centres unmarked) [ALP-POS-b0bc6a46-24], the IC50 was 10.4 µM.

As for `O=C(NCCc1cccc(F)c1)C(c1cccnc1)N(C(=O)c1ccco1)C1CCN(c2ccccc2)CC1` (centres unmarked) [ALP-POS-b0bc6a46-28], the IC50 was 79.6 µM. For the compound `COc1ccc2nnn(CC(=O)N(Cc3ccccn3)c3ccc(C4CCNCC4)cc3)c2c1` [ALP-POS-c0c213c9-1], the IC50 is 35.5 µM. `CC(C)(C(N)=O)c1ccc(N(Cc2ccsc2)C(=O)Cn2nnc3ccccc32)cc1` [ALP-POS-c0c213c9-6]: the IC50 was 3.17 µM. `Cc1ccc(N(Cc2cscn2)C(=O)Cc2cncc3ccccc23)cc1` [ALP-POS-c3a96089-1]: the half-inhibitory concentration (IC50) is 10.9 µM. As to `CNc1ccc(N(Cc2ccsc2)C(=O)Cn2nnc3ccccc32)cc1` [ALP-POS-c59291d4-4], the 50% inhibitory concentration (IC50) was 11.5 µM. For `O=C(Nc1cncc2ccccc12)C1CCOc2c(O)cc(Cl)cc21` (centres unmarked) [ALP-POS-ce760d3f-1], the IC50 was 0.579 µM. As for `CN1C(=O)CCc2cc(N(C(=O)c3cocn3)C(C(=O)NCCc3cccc(F)c3)c3cccnc3)ccc21` (centres unmarked) [ALP-POS-ced8ea4d-1], the IC50 was 63.5 µM. Consider `CC(C)S(=O)(=O)c1ccc(N(C(=O)c2cocn2)C(C(=O)NCCc2cccc(F)c2)c2cccnc2)cc1` (centres unmarked) [ALP-POS-ced8ea4d-5], for which the IC50 is 66.1 µM. In the case of `Cn1ncc2cc(N(C(=O)c3cocn3)C(C(=O)NCCc3cccc(F)c3)c3cccnc3)ccc21` (centres unmarked) [ALP-POS-ced8ea4d-8], the IC50 was 48 µM. For `CS(=O)(=O)c1ccc(N(C(=O)c2cocn2)C(C(=O)NCCc2cccc(F)c2)c2cccnc2)cc1` (centres unmarked) [ALP-POS-ced8ea4d-9], the half-maximal inhibitory concentration (IC50) is 75.9 µM. Consider `CS(=O)(=O)Cc1ccc(N(C(=O)c2cocn2)C(C(=O)NCCc2cccc(F)c2)c2cccnc2)cc1` (centres unmarked) [ALP-POS-ced8ea4d-11], for which the half-inhibitory concentration (IC50) is 27.7 µM. As to `CC(C)Oc1ccc(N(C(=O)c2cocn2)C(C(=O)NCCc2cccc(F)c2)c2cccnc2)cc1` (centres unmarked) [ALP-POS-ced8ea4d-12], the IC50 was 0.609 µM.

In the case of `O=C(NCCc1cccc(F)c1)C(c1cccnc1)N(C(=O)c1cocn1)c1ccc(Cn2cccn2)cc1` (centres unmarked) [ALP-POS-ced8ea4d-16], the 50% inhibitory concentration (IC50) is 8.34 µM. `COc1ccc(N(C(=O)c2cocn2)C(C(=O)NCCc2cccc(F)c2)c2cccnc2)cc1` (centres unmarked) [ALP-POS-ced8ea4d-19]: the 50% inhibitory concentration (IC50) is 22.2 µM. For `Cn1ccc2cc(N(C(=O)c3cocn3)C(C(=O)NCCc3cccc(F)c3)c3cccnc3)ccc21` (centres unmarked) [ALP-POS-ced8ea4d-20], the IC50 was 23.8 µM.

In the case of `O=C(NCCc1cccc(F)c1)C(c1cccnc1)N(C(=O)c1cocn1)c1ccc2ncsc2c1` (centres unmarked) [ALP-POS-ced8ea4d-24], the half-maximal inhibitory concentration (IC50) is 60.5 µM.

As to `Cc1ccc(N(C(=O)c2cocn2)C(C(=O)NCCc2cccc(F)c2)c2cccnc2)cc1` (centres unmarked) [ALP-POS-ced8ea4d-27], the IC50 is 50.2 µM. Regarding `O=C(NCCc1cccc(F)c1)C(c1cccnc1)N(C(=O)c1cocn1)c1ccccc1` (centres unmarked) [ALP-POS-ced8ea4d-28], the half-inhibitory concentration (IC50) is 89.2 µM. As to `O=C(NCCc1cccc(F)c1)C(c1cccnc1)N(C(=O)c1cocn1)c1ccc(OC2CCOC2)cc1` (centres unmarked) [ALP-POS-ced8ea4d-32], the IC50 is 6.32 µM. Turning to `O=C(NCCc1cccc(F)c1)C(c1cccnc1)N(C(=O)c1cocn1)c1cn(Cc2ccccc2)cn1` (centres unmarked) [ALP-POS-ced8ea4d-35], the IC50 was 27.3 µM. As to `O=C(NCCc1cccc(F)c1)C(c1cccnc1)N(C(=O)c1cocn1)c1ccc2scnc2c1` (centres unmarked) [ALP-POS-ced8ea4d-36], the IC50 is 84 µM.

As to `O=C(NCCc1cccc(F)c1)C(c1cccnc1)N(C(=O)c1cocn1)c1ccc(C(F)(F)F)nc1` (centres unmarked) [ALP-POS-ced8ea4d-37], the half-inhibitory concentration (IC50) is 36.4 µM. In the case of `O=C(NCCc1cccc(F)c1)C(c1cccnc1)N(C(=O)c1cocn1)c1cnc(C2CCC2)nc1` (centres unmarked) [ALP-POS-ced8ea4d-63], the IC50 was 69.1 µM. With `CCOc1ccc(N(C(=O)c2cocn2)C(C(=O)NCCc2cccc(F)c2)c2cccnc2)cc1` (centres unmarked) [ALP-POS-ced8ea4d-67], the concentration for half-maximal inhibition (IC50) is 15.5 µM. As for `Cc1ccncc1C(C(=O)NCCc1cccc(F)c1)N(C(=O)c1cocn1)c1ccc(C(C)(C)C)cc1` (centres unmarked) [ALP-POS-d0876c20-1], the IC50 is 0.653 µM.

Consider `CC(C)(C)c1ccc(N(C(=O)c2cocn2)C(C(=O)NCCc2cccc(F)c2)c2ccnnc2)cc1` (centres unmarked) [ALP-POS-d0876c20-5], for which the IC50 is 2.05 µM. In the case of `COc1nccnc1C(C(=O)NCCc1cccc(F)c1)N(C(=O)c1cocn1)c1ccc(C(C)(C)C)cc1` (centres unmarked) [ALP-POS-d0876c20-15], the half-inhibitory concentration (IC50) is 94.9 µM. Turning to `CC(C)(C)c1ccc(N(C(=O)c2cocn2)C(C(=O)NCCc2cccc(F)c2)c2cncnc2)cc1` (centres unmarked) [ALP-POS-d0876c20-17], the IC50 is 2.92 µM. On to `COc1ncncc1C(C(=O)NCCc1cccc(F)c1)N(C(=O)c1cocn1)c1ccc(C(C)(C)C)cc1` (centres unmarked) [ALP-POS-d0876c20-19], for which the IC50 is 8.43 µM. With `CC(C)(C)c1ccc(N(C(=O)c2cocn2)C(C(=O)NCCc2cccc(F)c2)c2cnccn2)cc1` (centres unmarked) [ALP-POS-d0876c20-21], the IC50 was 1.21 µM.

Take `CN(C)c1ccc(N(Cc2ccsc2)C(=O)Cn2nnc3ccccc32)cc1` [ALP-POS-d2866bdf-1]: the IC50 is 3.58 µM. Take `O=C(NCCc1cccc(F)c1)C(c1cccnc1)N(C(=O)c1cnc[nH]1)c1ccc(OC2CCOC2)cc1` (centres unmarked) [ALP-POS-e980f4ea-32]: the half-maximal inhibitory concentration (IC50) is 25.8 µM. Turning to `O=C(COc1cccc(Cl)c1)Nc1cncc2ccccc12` [ALP-POS-f13221e1-2], the IC50 was 8.59 µM. `O=C(CC1(C(=O)Nc2cncc3ccccc23)CCOc2ccc(Cl)cc21)N1CCN(CC(F)(F)CO)CC1` (centres unmarked) [ALP-UNI-8e43a71e-10]: the half-maximal inhibitory concentration (IC50) is 7.28 µM.

For the compound `O=C(Nc1cncc2ccccc12)C1CCNc2cc(Cl)c(Cl)cc21` (centres unmarked) [ALP-UNI-3735e77e-4], the IC50 is 0.154 µM. Consider `O=C(Nc1cncc2ccccc12)C1CCN(Cc2cnc[nH]2)c2ccc(Cl)cc21` (centres unmarked) [ALP-UNI-b33a865d-1], for which the half-maximal inhibitory concentration (IC50) was 1.12 µM. For `Cn1nncc1CC(=O)NC(c1ccccc1)c1nc2ccccc2n1C` (centres unmarked) [BAR-COM-4e090d3a-6], the IC50 is 35.7 µM. In the case of `O=C(c1cc(=O)[nH]c2ccccc12)N1CCN(Cc2ccccc2)CC1` [BEN-DND-7e92b6ca-10], the half-inhibitory concentration (IC50) is 13.8 µM. On to `COc1cccc(N2CCN(C(=O)c3cc(=O)[nH]c4ccccc34)CC2)c1` [BEN-DND-7e92b6ca-12], for which the IC50 was 13.6 µM. Take `COc1ccccc1N1CCN(C(=O)c2cc(=O)[nH]c3ccccc23)CC1` [BEN-DND-7e92b6ca-13]: the concentration for half-maximal inhibition (IC50) is 32.8 µM. With `O=C(c1cc(=O)[nH]c2ccccc12)N1CCN(c2ccc(F)cc2)CC1` [BEN-DND-7e92b6ca-14], the concentration for half-maximal inhibition (IC50) was 34.6 µM. Turning to `O=C(Nc1cncc2ccccc12)N1CCOc2ccc(Cl)cc21` [BEN-DND-f2e727cd-1], the IC50 was 11.4 µM. On to `O=C(NCCc1cccc(F)c1)C(c1cccnc1)N(C(=O)c1c[nH]cn1)c1ccc(OC(F)F)cc1` (centres unmarked) [BRU-THA-92256091-16], for which the IC50 is 22.1 µM. Regarding `COc1ccc(N(C(=O)c2c[nH]cn2)C(C(=O)NCCc2cccc(F)c2)c2cccnc2)cc1` (centres unmarked) [BRU-THA-92256091-19], the IC50 is 93.7 µM. `CS(=O)(=O)Cc1ccc(N(C(=O)c2c[nH]cn2)C(C(=O)NCCc2cccc(F)c2)c2cccnc2)cc1` (centres unmarked) [BRU-THA-92256091-20]: the IC50 is 41.1 µM.
